Measurements published in the NIST ThermoML archive (doi:10.1016/j.jct.2018.12.021).

Test: mn = molality of the nth substance listed, in mol/kg
Conditions: for electrical conductivity / mass density: 100 kPa, Liquid; for electrical conductivity: Direct current cell with electrodes; for mass density: Vibrating tube method; for surface tension liquid-gas: Ring tensiometer

CCCCCCCCCCCC[n+]1cscc1C.[Br-] [N-dodecyl-4-methylthiazolium bromide] + O
Conditions	electrical conductivity [S/m]	mass density [kg/m3]	surface tension liquid-gas [mN/m]
293.15 K, m1 = 0.0015	0.0135	998.25	–
293.15 K, m1 = 0.00206	0.0179	998.29	–
293.15 K, m1 = 0.0025	0.0221	998.31	–
293.15 K, m1 = 0.00402	0.0346	998.4	–
293.15 K, m1 = 0.005	0.0428	998.45	–
293.15 K, m1 = 0.00561	–	998.48	–
293.15 K, m1 = 0.00708	0.0591	998.56	–
293.15 K, m1 = 0.00803	–	998.6	–
293.15 K, m1 = 0.00906	0.0738	998.66	–
293.15 K, m1 = 0.01216	0.0813	998.81	–
293.15 K, m1 = 0.01507	0.0893	998.96	–
293.15 K, m1 = 0.01759	–	999.07	–
293.15 K, m1 = 0.02033	0.106	999.21	–
293.15 K, m1 = 0.02365	–	999.38	–
298.15 K, m1 = 0.0015	0.015	997.07	–
298.15 K, m1 = 0.00206	0.02	997.1	–
298.15 K, m1 = 0.0025	0.0246	997.12	–
298.15 K, m1 = 0.00402	0.0387	997.2	–
298.15 K, m1 = 0.005	0.0479	997.25	–
298.15 K, m1 = 0.00561	–	997.29	–
298.15 K, m1 = 0.00708	0.0662	997.36	–
298.15 K, m1 = 0.00803	–	997.42	–
298.15 K, m1 = 0.00906	0.0822	997.47	–
298.15 K, m1 = 0.01216	0.0921	997.62	–
298.15 K, m1 = 0.01507	0.101	997.75	–
298.15 K, m1 = 0.01759	–	997.86	–
298.15 K, m1 = 0.02033	0.12	998	–
298.15 K, m1 = 0.02365	–	998.16	–
303.15 K, m1 = 0.0015	0.0166	995.66	47.78
303.15 K, m1 = 0.00206	0.0222	995.68	43.39
303.15 K, m1 = 0.0025	0.0272	995.7	41.79
303.15 K, m1 = 0.00402	0.0428	995.77	39.49
303.15 K, m1 = 0.005	0.0529	995.82	35.96
303.15 K, m1 = 0.00561	–	995.86	–
303.15 K, m1 = 0.00708	0.0733	995.93	30.49
303.15 K, m1 = 0.00803	–	995.98	–
303.15 K, m1 = 0.00906	0.0917	996.03	30.89
303.15 K, m1 = 0.01216	0.103	996.17	31.36
303.15 K, m1 = 0.01507	0.114	996.3	30.86
303.15 K, m1 = 0.01759	–	996.4	–
303.15 K, m1 = 0.02033	0.137	996.53	30.91
303.15 K, m1 = 0.02365	–	996.65	–
308.15 K, m1 = 0.0015	0.0184	994.04	–
308.15 K, m1 = 0.00206	0.0244	994.06	–
308.15 K, m1 = 0.0025	0.03	994.08	–
308.15 K, m1 = 0.00402	0.047	994.13	–
308.15 K, m1 = 0.005	0.0581	994.18	–
308.15 K, m1 = 0.00561	–	994.21	–
308.15 K, m1 = 0.00708	0.0803	994.28	–
308.15 K, m1 = 0.00803	–	994.33	–
308.15 K, m1 = 0.00906	0.1	994.37	–
308.15 K, m1 = 0.01216	0.114	994.49	–
308.15 K, m1 = 0.01507	0.127	994.61	–
308.15 K, m1 = 0.01759	–	994.69	–
308.15 K, m1 = 0.02033	0.15	994.82	–
308.15 K, m1 = 0.02365	–	994.89	–
313.15 K, m1 = 0.0015	0.02	992.22	–
313.15 K, m1 = 0.00206	0.0267	992.23	–
313.15 K, m1 = 0.0025	0.0329	992.24	–
313.15 K, m1 = 0.00402	0.0515	992.28	–
313.15 K, m1 = 0.005	0.0634	992.31	–
313.15 K, m1 = 0.00561	–	992.34	–
313.15 K, m1 = 0.00708	0.0877	992.39	–
313.15 K, m1 = 0.00803	–	992.43	–
313.15 K, m1 = 0.00906	0.11	992.47	–
313.15 K, m1 = 0.01216	0.125	992.61	–
313.15 K, m1 = 0.01507	0.138	992.72	–
313.15 K, m1 = 0.01759	–	992.81	–
313.15 K, m1 = 0.02033	0.162	992.9	–
313.15 K, m1 = 0.02365	–	993	–
